Data published in patent US20240308976A1, “COMPOUNDS THAT MEDIATE PROTEIN DEGRADATION AND USES THEREOF” (Monte Rosa Therapeutics, Inc., priority 2021, published 2024).

How the values were obtained:
[1] = target: CRBN-DDB1 (Homo sapiens, UniProt Q96SW2); experiment: Compound binding to CRBN by HTRF assay; conditions: CRBN-DDB1 2.5 nM, Cy5-Thalidomide 100 nM, 30 min at ambient temperature; read-out: HTRF Class (Cereblon binding, HTRF IC50)
Summary of the method: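 Cy5-thalidomide (100 nM) displacement from His-tagged CRBN-DDB1 (2.5 nM) read by terbium-cryptate HTRF (665/620 nm), in 20 mM HEPES, 20 mM NaCl, 0.2 mM TCEP, 0.2 mM EDTA, 0.005% Tween20. Compounds tested as 10-point 1:3 series, 30 min at ambient temperature. Signal normalised to DMSO and lenalidomide controls; IC50 fitted, Ki by Cheng-Prusoff.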

[2] = target: T1, GSPT1 (Homo sapiens, UniProt P15170+Q96SW2); experiment: Immunofluorescence assay for activity to degrade GSPT1 in CAL-51 cells; format: cell-based; conditions: 6 h treatment, read-out: IF Class (GSPT1 degradation, DC50)
T1 construct: CAL-51 cells were purchased from DSMZ (cat. Number ACC302); host or cells: CAL-51
Summary of the method: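 CAL-51 cells treated 6 h with compound (30 μM to 0.1 nM), fixed, immunostained for GSPT1 with DAPI and phalloidin counterstains, imaged by high-content microscopy. Mean per-cell GSPT1 intensity normalized to controls; DC50 by non-linear regression.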

CRBN-DDB1, sequence (Q96SW2 whole entry): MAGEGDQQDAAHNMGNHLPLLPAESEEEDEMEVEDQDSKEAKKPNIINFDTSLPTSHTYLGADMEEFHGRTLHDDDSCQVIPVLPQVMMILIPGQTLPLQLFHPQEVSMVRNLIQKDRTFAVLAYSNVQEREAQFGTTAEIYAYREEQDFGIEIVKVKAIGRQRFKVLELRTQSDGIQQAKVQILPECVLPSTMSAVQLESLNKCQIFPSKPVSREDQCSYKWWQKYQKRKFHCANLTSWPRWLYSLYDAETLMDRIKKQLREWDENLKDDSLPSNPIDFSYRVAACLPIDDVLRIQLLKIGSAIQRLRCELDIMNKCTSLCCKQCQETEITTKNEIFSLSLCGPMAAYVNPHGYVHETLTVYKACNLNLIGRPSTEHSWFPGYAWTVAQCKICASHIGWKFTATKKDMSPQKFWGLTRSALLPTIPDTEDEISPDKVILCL
CRBN-DDB1, sequence (Q16531 whole entry partner): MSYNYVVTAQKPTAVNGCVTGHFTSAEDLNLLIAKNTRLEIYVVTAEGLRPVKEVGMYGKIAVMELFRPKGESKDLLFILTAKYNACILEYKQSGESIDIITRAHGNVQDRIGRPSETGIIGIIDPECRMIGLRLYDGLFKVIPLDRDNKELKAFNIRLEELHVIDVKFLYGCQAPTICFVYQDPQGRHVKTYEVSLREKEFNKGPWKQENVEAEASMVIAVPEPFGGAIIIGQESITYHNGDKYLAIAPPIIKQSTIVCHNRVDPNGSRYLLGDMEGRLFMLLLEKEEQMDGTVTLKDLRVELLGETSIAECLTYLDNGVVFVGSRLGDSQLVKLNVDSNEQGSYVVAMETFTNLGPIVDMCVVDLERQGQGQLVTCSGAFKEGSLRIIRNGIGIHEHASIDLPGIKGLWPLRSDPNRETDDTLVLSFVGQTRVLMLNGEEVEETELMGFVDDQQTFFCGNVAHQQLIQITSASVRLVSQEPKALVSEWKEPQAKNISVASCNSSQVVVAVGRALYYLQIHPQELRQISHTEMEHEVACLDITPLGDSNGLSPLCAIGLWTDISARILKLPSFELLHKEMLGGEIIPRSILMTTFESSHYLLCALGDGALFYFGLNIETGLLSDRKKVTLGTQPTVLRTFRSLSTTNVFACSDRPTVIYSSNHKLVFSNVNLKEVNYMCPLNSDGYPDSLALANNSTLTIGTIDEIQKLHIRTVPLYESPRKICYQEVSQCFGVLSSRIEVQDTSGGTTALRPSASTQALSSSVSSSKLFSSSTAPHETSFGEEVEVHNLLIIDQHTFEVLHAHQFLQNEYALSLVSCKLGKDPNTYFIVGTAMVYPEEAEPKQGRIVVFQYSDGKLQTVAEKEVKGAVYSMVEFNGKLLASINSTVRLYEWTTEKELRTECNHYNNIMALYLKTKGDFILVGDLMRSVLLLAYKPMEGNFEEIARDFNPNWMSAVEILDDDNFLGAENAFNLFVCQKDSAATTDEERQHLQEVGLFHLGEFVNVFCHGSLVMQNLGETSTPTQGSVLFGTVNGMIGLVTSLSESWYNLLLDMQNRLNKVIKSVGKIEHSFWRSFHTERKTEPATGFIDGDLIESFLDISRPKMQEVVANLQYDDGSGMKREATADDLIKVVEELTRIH
T1 sequence (P15170 whole entry): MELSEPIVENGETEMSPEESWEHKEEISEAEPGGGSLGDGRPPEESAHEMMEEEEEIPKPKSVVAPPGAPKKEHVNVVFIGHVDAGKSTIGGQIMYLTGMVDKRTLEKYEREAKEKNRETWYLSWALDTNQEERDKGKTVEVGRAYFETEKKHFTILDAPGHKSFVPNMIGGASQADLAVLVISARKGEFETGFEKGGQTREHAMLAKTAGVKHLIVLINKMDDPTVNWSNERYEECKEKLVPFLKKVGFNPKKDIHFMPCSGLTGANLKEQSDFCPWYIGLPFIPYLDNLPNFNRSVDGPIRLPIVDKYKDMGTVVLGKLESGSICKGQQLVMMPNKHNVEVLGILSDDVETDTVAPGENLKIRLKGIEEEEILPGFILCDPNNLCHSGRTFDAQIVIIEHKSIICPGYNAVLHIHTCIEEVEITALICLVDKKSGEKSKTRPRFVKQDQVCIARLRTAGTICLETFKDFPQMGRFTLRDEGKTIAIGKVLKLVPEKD
T1 sequence (Q96SW2 whole entry): as the sequence (Q96SW2 whole entry) above
T1 sequence (Q16531 2-1140 partner limits assumed): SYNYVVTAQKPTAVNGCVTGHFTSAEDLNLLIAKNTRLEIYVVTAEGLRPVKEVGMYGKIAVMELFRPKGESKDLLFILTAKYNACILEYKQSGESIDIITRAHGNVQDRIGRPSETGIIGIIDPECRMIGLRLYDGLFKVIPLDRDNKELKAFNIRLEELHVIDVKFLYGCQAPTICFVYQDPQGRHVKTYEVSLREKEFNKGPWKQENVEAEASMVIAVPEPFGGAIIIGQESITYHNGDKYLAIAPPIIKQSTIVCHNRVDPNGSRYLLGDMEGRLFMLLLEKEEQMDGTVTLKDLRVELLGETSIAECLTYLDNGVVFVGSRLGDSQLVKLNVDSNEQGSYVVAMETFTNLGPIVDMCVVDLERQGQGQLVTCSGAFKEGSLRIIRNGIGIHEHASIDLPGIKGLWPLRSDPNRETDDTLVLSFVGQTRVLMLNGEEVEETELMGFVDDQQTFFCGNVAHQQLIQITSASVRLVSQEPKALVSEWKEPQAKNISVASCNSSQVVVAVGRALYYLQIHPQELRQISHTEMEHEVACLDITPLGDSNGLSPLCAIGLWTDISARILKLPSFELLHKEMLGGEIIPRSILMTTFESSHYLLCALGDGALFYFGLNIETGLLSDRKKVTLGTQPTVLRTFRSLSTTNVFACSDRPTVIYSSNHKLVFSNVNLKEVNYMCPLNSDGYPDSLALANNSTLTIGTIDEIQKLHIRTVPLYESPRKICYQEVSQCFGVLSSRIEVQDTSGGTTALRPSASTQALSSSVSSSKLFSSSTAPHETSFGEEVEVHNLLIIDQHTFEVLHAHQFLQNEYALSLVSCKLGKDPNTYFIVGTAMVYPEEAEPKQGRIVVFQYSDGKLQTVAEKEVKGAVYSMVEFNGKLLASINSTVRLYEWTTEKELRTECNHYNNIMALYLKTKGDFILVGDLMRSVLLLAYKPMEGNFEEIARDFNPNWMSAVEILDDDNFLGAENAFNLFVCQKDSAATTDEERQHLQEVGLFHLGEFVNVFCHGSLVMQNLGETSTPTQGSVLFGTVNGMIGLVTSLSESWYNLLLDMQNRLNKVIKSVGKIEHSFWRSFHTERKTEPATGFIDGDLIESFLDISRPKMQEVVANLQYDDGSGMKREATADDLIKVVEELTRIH

Row | Structure (SMILES) | IC50 [1] [nM] | DC50 [2] [nM]
1 | COc1cc(C)c(Cl)cc1NC(=O)NC1CN(c2ccc(C3CCC(=O)NC3=O)cc2)C1 (stereo not drawn) [Compound 72, 1-(5-chloro-2-methoxy-4-methylphenyl)-3-(1-(4-(2,6-dioxopiperidin-3-yl)phenyl)azetidin-3-yl)urea] | > 1000 | 30 to 300
2 | O=C1CCC(c2c(F)cc(N3CC(OC(=O)NCC4CC4)C3)cc2F)C(=O)N1 (stereo not drawn) [Compound 82, 1-(4-(2,6-dioxopiperidin-3-yl)-3,5-difluorophenyl)azetidin-3-yl (cyclopropylmethyl)carbamate] | 100 to 1000 | > 300
3 | O=C1CCC(c2c(F)cc(N3CC(OC(=O)N[C@@H]4CCOC4)C3)cc2F)C(=O)N1 (stereo partly drawn) [Compound 83, 1-(4-(2,6-dioxopiperidin-3-yl)-3,5-difluorophenyl)azetidin-3-yl ((R)-tetrahydrofuran-3-yl)carbamate] | 100 to 1000 | > 300
4 | O=C1CCC(c2c(F)cc(N3CC(OC(=O)N[C@H]4CCCOC4)C3)cc2F)C(=O)N1 (stereo partly drawn) [Compound 84, 1-(4-(2,6-dioxopiperidin-3-yl)-3,5-difluorophenyl)azetidin-3-yl ((S)-tetrahydro-2H-pyran-3-yl)carbamate] | 100 to 1000 | > 300
5 | O=C1CCC(c2c(F)cc(N3CC(OC(=O)N[C@@H]4CCCOC4)C3)cc2F)C(=O)N1 (stereo partly drawn) [Compound 85, 1-(4-(2,6-dioxopiperidin-3-yl)-3,5-difluorophenyl)azetidin-3-yl((R)-tetrahydro-2H-pyran-3-yl)carbamate] | 100 to 1000 | > 300
6 | O=C1CCC(c2c(F)cc(N3CC(OC(=O)NC4CC4)C3)cc2F)C(=O)N1 (stereo not drawn) [Compound 86, 1-(4-(2,6-dioxopiperidin-3-yl)-3,5-difluorophenyl)azetidin-3-yl cyclopropylcarbamate] | 100 to 1000 | > 300
7 | O=C1CCC(c2c(F)cc(N3CC(OC(=O)NCC(F)(F)F)C3)cc2F)C(=O)N1 (stereo not drawn) [Compound 87, 1-(4-(2,6-dioxopiperidin-3-yl)-3,5-difluorophenyl)azetidin-3-yl (2,2,2-trifluoroethyl)carbamate] | 100 to 1000 | > 300
8 | O=C1CCC(c2c(F)cc(N3CC(OC(=O)NC4CC(F)(F)C4)C3)cc2F)C(=O)N1 (stereo not drawn) [Compound 88, 1-(4-(2,6-dioxopiperidin-3-yl)-3,5-difluorophenyl)azetidin-3-yl(3,3-difluorocyclobutyl)carbamate] | 100 to 1000 | > 300
9 | CC(C)(C)NC(=O)OC1CN(c2cc(F)c(C3CCC(=O)NC3=O)c(F)c2)C1 (stereo not drawn) [Compound 89, 1-(4-(2,6-dioxopiperidin-3-yl)-3,5-difluorophenyl)azetidin-3-yl tert-butylcarbamate] | 100 to 1000 | > 300
10 | O=C1CCC(c2c(F)cc(N3CC(OC(=O)NC4CCC4)C3)cc2F)C(=O)N1 (stereo not drawn) [Compound 90, 1-(4-(2,6-dioxopiperidin-3-yl)-3,5-difluorophenyl) azetidin-3-yl cyclobutylcarbamate] | 100 to 1000 | > 300
11 | O=C1CCC(c2c(F)cc(N3CC(OC(=O)NCC4CCC4)C3)cc2F)C(=O)N1 (stereo not drawn) [Compound 91, 1-(4-(2,6-dioxopiperidin-3-yl)-3,5-difluorophenyl)azetidin-3-yl (cyclobutylmethyl)carbamate] | 100 to 1000 | 30 to 300
12 | O=C1CCC(c2c(F)cc(N3CC(OC(=O)NC4CCCC4)C3)cc2F)C(=O)N1 (stereo not drawn) [Compound 92, 1-(4-(2,6-dioxopiperidin-3-yl)-3,5-difluorophenyl)azetidin-3-yl cyclopentylcarbamate] | 100 to 1000 | > 300

Next, values leading:

Row | IC50 [1] [nM] | DC50 [2] [nM] | Structure (SMILES)
13 | 100 to 1000 | ≤ 30 | O=C1CCC(c2c(F)cc(N3CC(OC(=O)NC45CC(C(F)F)(C4)C5)C3)cc2F)C(=O)N1 (stereo not drawn) [Compound 70, 1-(4-(2,6-dioxopiperidin-3-yl)-3,5-difluorophenyl)azetidin-3-yl(3-(difluoromethyl)bicyclo[1.1.1]pentan-1-yl)carbamate]
14 | 100 to 1000 | > 300 | O=C1CCC(c2c(F)cc(N3CC(OC(=O)NC45CC(N6CCOCC6)(C4)C5)C3)cc2F)C(=O)N1 (stereo not drawn) [Compound 71, 1-(4-(2,6-dioxopiperidin-3-yl)-3,5-difluorophenyl)azetidin-3-yl(3-morpholinobicyclo [1.1.1]pentan-1-yl) carbamate]
15 | 100 to 1000 | ≤ 30 | O=C1CCC(c2c(F)cc(N3CC(NC(=O)NC45CC(c6ccccc6)(C4)C5)C3)cc2F)C(=O)N1 (stereo not drawn) [Compound 73, 1-(1-(4-(2,6-dioxopiperidin-3-yl)-3,5-difluorophenyl)azetidin-3-yl)-3-(3-phenylbicyclo[1.1.1]pentan-1-yl)urea]
16 | 100 to 1000 | > 300 | O=C1CCC(c2ccc(N3CC(NC(=O)Nc4cc(OC(F)(F)F)ccn4)C3)cc2)C(=O)N1 (stereo not drawn) [Compound 74, 1-(1-(4-(2,6-dioxopiperidin-3-yl)phenyl)azetidin-3-yl)-3-(4-(trifluoromethoxy)pyridin-2-yl)urea]
17 | 100 to 1000 | 30 to 300 | COC(=O)C12CC(NC(=O)OC3CN(c4cc(F)c(C5CCC(=O)NC5=O)c(F)c4)C3)(C1)C2 (stereo not drawn) [Compound 75, methyl 3-((((1-(4-(2,6-dioxopiperidin-3-yl)-3,5-difluorophenyl)azetidin-3-yl)oxy)carbonyl)amino)bicyclo[1.1.1]pentane-1-carboxylate]
18 | ≤ 100 | ≤ 30 | Cc1cc(NC(=O)OC2CN(c3cc(F)c(C4CCC(=O)NC4=O)c(F)c3)C2)ccc1F (stereo not drawn) [Compound 76, 1-(4-(2,6-dioxopiperidin-3-yl)-3,5-difluorophenyl)azetidin-3-yl (4-fluoro-3-methylphenyl)carbamate]
19 | 100 to 1000 | ≤ 30 | O=C1CCC(c2c(F)cc(N3CC(NC(=O)N[C@H]4C[C@H](c5ccccc5)C4)C3)cc2F)C(=O)N1 (stereo partly drawn) [Compound 77, 1-(1-(4-(2,6-dioxopiperidin-3-yl)-3,5-difluorophenyl)azetidin-3-yl)-3-((1R,3R)-3-phenylcyclobutyl)urea]
20 | 100 to 1000 | ≤ 30 | Cc1cc(F)cc(NC(=O)OC2CN(c3cc(F)c(C4CCC(=O)NC4=O)c(F)c3)C2)c1 (stereo not drawn) [Compound 78, 1-(4-(2,6-dioxopiperidin-3-yl)-3,5-difluorophenyl)azetidin-3-yl(3-fluoro-5-methylphenyl)carbamate]
21 | 100 to 1000 | 30 to 300 | O=C1CCC(c2c(F)cc(N3CC(OC(=O)NC4CCCCC4)C3)cc2F)C(=O)N1 (stereo not drawn) [Compound 79, 1-(4-(2,6-dioxopiperidin-3-yl)-3,5-difluorophenyl)azetidin-3-yl cyclohexylcarbamate]
22 | ≤ 100 | ≤ 30 | C[C@H]1C[C@@H](NC(=O)OC2CN(c3cc(F)c(C4CCC(=O)NC4=O)c(F)c3)C2)C1 (stereo partly drawn) [Compound 80, 1-(4-(2,6-dioxopiperidin-3-yl)-3,5-difluorophenyl)azetidin-3-yl ((1S,3S)-3-methylcyclobutyl)carbamate]
23 | 100 to 1000 | > 300 | O=C1CCC(c2c(F)cc(N3CC(OC(=O)N[C@H]4CCOC4)C3)cc2F)C(=O)N1 (stereo partly drawn) [Compound 81, 1-(4-(2,6-dioxopiperidin-3-yl)-3,5-difluorophenyl)azetidin-3-yl ((S)-tetrahydrofuran-3-yl)carbamate]
24 | ≤ 100 | ≤ 30 | CC1(C)CCC(NC(=O)OC2CN(c3cc(F)c(C4CCC(=O)NC4=O)c(F)c3)C2)CC1 (stereo not drawn) [Compound 93, 1-(4-(2,6-dioxopiperidin-3-yl)-3,5-difluorophenyl)azetidin-3-yl (4,4-dimethylcyclohexyl) carbamate]
